According to paper PMC10415282, “High resolution cryo-EM and crystallographic snapshots of the actinobacterial two-in-one 2-oxoglutarate dehydrogenase” (Nature Communications, 2023):

How the values were obtained:
[1] = biological target: T1, MsKGD-GarA complex (Mycolicibacterium smegmatis, UniProt A0R2B1); assay: crystal structure, […] Å; assay type: binding; conditions: Mg2+; 2 mM ThDP, 5 mM MgCl2, pH 8.0; GarA bound, resting conformation
T1 construct: gene kgd; with Glycogen accumulation regulator GarA

[2] = biological target: T2, OdhA (Corynebacterium glutamicum, UniProt Q8NRC3); assay: cryo-EM structure, […] Å; assay type: binding; conditions: E2o active site; ThDP-Mg and acetyl-CoA also bound
T2 construct: full length residues 1-1221, E. coli BL21(DE3), N-terminal His6-TEV tag cleaved for cryo-EM (OdhA-His6 kept for SPR); homohexamer, ~800 kDa

Structure (SMILES)	crystal structure, 4.6 Å [1]	cryo-EM structure, 2.1 Å [2]
Cc1ncc(C[n+]2csc(CCOP(=O)(O)OP(=O)(O)O)c2C)c(N)n1 [ThDP]	The E1o dimers containing the Mg-ThDP compose the blades	
CC(C)(COP(=O)(O)OP(=O)(O)OC[C@H]1O[C@@H](n2cnc3c(N)ncnc32)[C@H](O)[C@@H]1OP(=O)(O)O)[C@@H](O)C(=O)NCCC(=O)NCCSC(=O)CCC(=O)O [succinyl-CoA]		succinyl-CoA binds to the same domain with its 2-phosphoadenosine moiety superimposable
